Experimental data from ChEMBL document CHEMBL2203276, “Design, synthesis and evaluation of novel zwitterionic compounds as PPARα/γ dual agonists (1)” (Bioorg Med Chem Lett, 2012).
pEC50: −log10 of the molar value.

What was measured:
[1] = molecular target: T1, Peroxisome proliferator-activated receptor alpha (Homo sapiens, UniProt Q07869); assay: Agonist activity at GAL4-fused PPARalpha assessed as transcriptional activity by cell based assay; assay type: functional
T1 sequence (Q07869 whole entry): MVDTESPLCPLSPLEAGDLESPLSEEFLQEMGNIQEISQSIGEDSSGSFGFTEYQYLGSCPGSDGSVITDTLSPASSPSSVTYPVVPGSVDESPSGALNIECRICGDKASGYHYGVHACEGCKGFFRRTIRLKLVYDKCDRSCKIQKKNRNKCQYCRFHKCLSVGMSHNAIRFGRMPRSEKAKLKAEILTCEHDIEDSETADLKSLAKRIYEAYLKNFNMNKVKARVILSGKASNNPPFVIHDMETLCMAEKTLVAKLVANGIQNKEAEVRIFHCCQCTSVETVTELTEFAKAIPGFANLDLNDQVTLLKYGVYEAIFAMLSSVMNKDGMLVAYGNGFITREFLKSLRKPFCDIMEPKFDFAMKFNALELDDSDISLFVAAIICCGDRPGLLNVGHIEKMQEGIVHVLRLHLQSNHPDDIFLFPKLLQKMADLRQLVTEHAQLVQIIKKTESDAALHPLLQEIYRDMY

[2] = molecular target: T2, Peroxisome proliferator-activated receptor gamma (Homo sapiens, UniProt P37231); assay type: functional, cell-based
T2 sequence (P37231 whole entry): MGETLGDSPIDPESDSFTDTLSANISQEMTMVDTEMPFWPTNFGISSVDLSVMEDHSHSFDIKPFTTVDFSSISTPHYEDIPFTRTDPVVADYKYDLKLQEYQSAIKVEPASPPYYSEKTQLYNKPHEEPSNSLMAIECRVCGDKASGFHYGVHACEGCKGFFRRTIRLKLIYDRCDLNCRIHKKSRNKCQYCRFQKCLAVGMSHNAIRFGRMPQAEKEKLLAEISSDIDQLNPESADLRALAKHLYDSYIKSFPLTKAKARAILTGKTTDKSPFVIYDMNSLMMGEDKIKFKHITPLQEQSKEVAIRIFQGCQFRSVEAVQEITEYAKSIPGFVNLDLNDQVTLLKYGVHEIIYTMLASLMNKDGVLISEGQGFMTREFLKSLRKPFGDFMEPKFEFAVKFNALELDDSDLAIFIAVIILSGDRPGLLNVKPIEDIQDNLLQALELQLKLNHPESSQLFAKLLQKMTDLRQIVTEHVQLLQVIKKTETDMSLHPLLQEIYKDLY
Description: Agonist activity at GAL4-fused PPARgamma assessed as transcriptional activity by cell based assay

Mus musculus [3] = assay: Antidiabetic activity in db/db mouse type 2 diabetic model assessed as reduction of plasma glucose level at 10 mg/kg, po administered for 14 days; assay type: functional; design: scale not given: the % may be the effect or the level left
Mus musculus [4] = assay: Toxicity in db/db mouse type 2 diabetic model assessed as reduction of body weight at 10 mg/kg, po administered for 14 days; assay type: organism-based; design: dose 10 mg/kg, route oral; scale not given: the % may be the effect or the level left; details: in vivo, 336 h
Mus musculus [5] = assay: Antidiabetic activity in db/db mouse type 2 diabetic model assessed as reduction of plasma triglyceride level at 10 mg/kg, po administered for 14 days; assay type: functional; design: scale not given: the % may be the effect or the level left
Mus musculus [6] = assay: Toxicity in db/db mouse type 2 diabetic model assessed as reduction of body weight at 30 mg/kg, po administered for 14 days; assay type: organism-based; design: dose 30 mg/kg, route oral; scale not given: the % may be the effect or the level left; details: in vivo, 336 h
Mus musculus [7] = assay: Antidiabetic activity in db/db mouse type 2 diabetic model assessed as reduction of plasma glucose level at 30 mg/kg, po administered for 14 days; assay type: functional; design: scale not given: the % may be the effect or the level left
Mus musculus [8] = assay: Antidiabetic activity in db/db mouse type 2 diabetic model assessed as reduction of plasma triglyceride level at 30 mg/kg, po administered for 14 days; assay type: functional; design: scale not given: the % may be the effect or the level left

Row | Structure (SMILES) | pEC50 [1] | pEC50 [2] | further results
1 | Cc1oc(-c2cccc(Br)c2)nc1CN(Cc1ccccc1)Cc1ccc(OC(C)(C)C(=O)O)cc1 | 7.25 | 5.66 | 
2 | Cc1cc(CN(Cc2ccco2)Cc2nc(-c3ccccc3)oc2C)ccc1OC(C)(C)C(=O)O | 8.41 | 7.38 | 
3 | COc1ccc(OC(=O)N(CC(=O)O)Cc2ccc(OCCc3nc(-c4ccccc4)oc3C)cc2)cc1 [MURAGLITAZAR] | 6.52 |  | 
4 | Cc1oc(-c2cccc(Br)c2)nc1CN(Cc1ccc(OC(C)(C)C(=O)O)cc1)Cc1ccco1 | 8.09 | 6.51 | 
5 | Cc1oc(-c2ccccc2)nc1CN(Cc1ccco1)Cc1ccc(OC(C)(C)C(=O)O)cc1Cl | 7.44 | 6.05 | 
6 | Cc1oc(-c2ccccc2)nc1CN(Cc1ccc(OC(C)(C)C(=O)O)cc1)Cc1ccco1 | 7.89 | 6.17 | 
7 | CCCCN(Cc1ccc(OC(C)(C)C(=O)O)cc1)Cc1nc(-c2cccc(Br)c2)oc1C | 6.30 | 5.89 | 
8 | CN(CCOc1ccc(CC2SC(=O)NC2=O)cc1)c1ccccn1 (stereo not drawn) [ROSIGLITAZONE] |  |  | Activity (Mus musculus [3]): 54%; Activity (Mus musculus [4]): 10.1%; Activity (Mus musculus [5]): 58%
9 | Cc1oc(-c2ccccc2)nc1CNCc1ccc(OC(C)(C)C(=O)O)cc1 | 5.00 | < 4.60 | 
10 | Cc1oc(-c2cccc(Br)c2)nc1CNCc1ccc(OC(C)(C)C(=O)O)cc1 | 6.17 | 5.11 | 
11 | COc1cc(CN(Cc2ccco2)Cc2nc(-c3ccccc3)oc2C)ccc1OC(C)(C)C(=O)O | 8.05 | 6.74 | 
12 | Cc1oc(-c2ccccc2)nc1CN(Cc1ccc(OC(C)(C)C(=O)O)c(Cl)c1)Cc1ccco1 | 8.29 | 7.15 | 
13 | COc1ccc(CN(Cc2ccc(OC(C)(C)C(=O)O)cc2)Cc2nc(-c3cccc(Br)c3)oc2C)cc1 | 7.59 | 6.15 | 
14 | Cc1oc(-c2cccc(Br)c2)nc1CN(Cc1ccc(OC(C)(C)C(=O)O)cc1)C(=O)c1ccccc1 | < 4.60 | < 4.60 | 
15 | Cc1oc(-c2ccccc2)nc1CCNc1ccc(OC(C)(C)C(=O)O)cc1 | 5.28 | 4.80 | 
16 | Cc1oc(-c2ccccc2)nc1CC(=O)Nc1ccc(OC(C)(C)C(=O)O)cc1 | < 4.60 | < 4.60 | 
17 | Cc1cc(CN(Cc2ccco2)Cc2nc(-c3ccccc3)oc2C)cc(C)c1OC(C)(C)C(=O)O | 8.77 | 8.33 | Activity (Mus musculus [3]): 74%; Activity (Mus musculus [4]): -7.6%; Activity (Mus musculus [5]): 88%
18 | Cc1oc(-c2cccc(Br)c2)nc1CCOc1ccc(OC(C)(C)C(=O)O)cc1 | 7.09 | 6.10 | 
19 | COc1cc(OC(C)(C)C(=O)O)ccc1CN(Cc1ccco1)Cc1nc(-c2ccccc2)oc1C | 7.49 | 6.48 | 
20 | Cc1oc(-c2ccccc2)nc1CNc1ccc(OC(C)(C)C(=O)O)cc1 | 5.14 | 5.06 | 
21 | Cc1oc(-c2ccccc2)nc1CCOc1ccc(OC(C)(C)C(=O)O)cc1 | 6.30 | < 4.60 | Activity (Mus musculus [6]): 8.4%; Activity (Mus musculus [7]): 25%; Activity (Mus musculus [8]): 56%
